Assay results reported in patent publication US8476265B2, “Compounds-801” (AstraZeneca AB, priority 2010, dated 2013).

Legend:
[1] = biological target: T1, human muscarinic acetylcholine M3 receptor (Homo sapiens, UniProt P20309); test: Muscarinic 3 receptor binding assay ([3H]NMS competition, SPA), pIC50; settings: [3H]NMS 0.1 nM, CHO-K1 cell membranes expressing human M3 receptor
T1 construct: expressed in transfected cells; host or cells: CHO-K1 (Chinese Hamster Ovary) cell membranes
Description: Muscarinic 3 Receptor Binding Assay
The affinity (pIC50) of compounds binding to the M3 receptor is determined by competition binding of [^3H]N-methyl scopolamine (NMS) to CHO-K1 (Chinese Hamster Ovary) cell membranes expressing the human muscarinic acetylcholine M3 receptor (M3-ACh) in a scintillation proximity assay (SPA) format.
SPA beads are precoated with membranes and then incubated at 2 mg of beads per well with serial dilutions of compounds of the invention, [^3H]NMS at 0.1 nM, quarter Kd (experimentally determined dissociation constant) and assay buffer (20 mM HEPES pH 7.4 containing 5 mM MgCl2 and 0.1% (w/v) bovine serum albumin). The assay is conducted in a final volume of 200 μL, in the presence of 1% (v/v) dimethyl sulphoxide (DMSO). Total binding of [^3H]NMS is determined in the absence of competing compound and non-specific binding of [^3H]NMS is determined in the presence of 1 μM atropine. The plates are incubated for 16 hours at room temperature and then read on Wallac Microbeta™ using a normalised ^3H protocol. The pIC50, defined as the negative logarithm of the molar concentration of compound required for 50% reduction in specific [^3H]-NMS binding, is determined.

Adrenergic β2 = biological target: T2, Adrenergic β2 (Homo sapiens, UniProt P07550); test: Adrenergic β2 mediated cAMP production in H292 cells (AlphaScreen), concentration response; format: cell-based; settings: for EC50: 60 min, 300 μM rolipram, read-out: β2 pEC50 (converted); for β2 Intrinsic Activity: fraction relative to the maximum activity determined for formoterol
T2 construct: Adherent H292 cells are removed from tissue culture flasks by treatment with Accutase™ cell detachment solution; endogenous in cells; host or cells: H292 cells
Description: Assay for Adrenergic 132 Mediated cAMP Production
H292 cells are grown in 225 cm2 flasks incubator at 37° C., 5% CO2 in RPMI medium containing 10% (v/v) FBS (foetal bovine serum) and 2 mM L-glutamine.
Adherent H292 cells re removed from tissue culture flasks by treatment with Accutase™ cell detachment solution for 15 minutes. Flasks are incubated for 15 minutes in a humidified incubator at 37° C., 5% CO2. Detached cells are re-suspended in RPMI media (containing 10% (v/v) FBS and 2 mM L-glutamine) at 0.1×10^6 cells per mL. 10000 cells in 100 μl, are added to each well of a tissue-culture-treated 96-well plate and the cells incubated overnight in a humidified incubator at 37° C., 5% CO2. The culture media is removed and cells are washed twice with 100 μL assay buffer and replaced with 50 μl assay buffer (HBSS solution containing 10 mM HEPES pH7.4 and 5 mM glucose). Cells are rested at room temperature for 20 minutes after which time 25 μl of rolipram (1.2 mM made up in assay buffer containing 2.4% (v/v) dimethylsulphoxide) is added. Cells are incubated with rolipram for 10 minutes after which time test compounds are added and the cells are incubated for 60 minutes at room temperature. The final rolipram concentration in the assay is 300 μM and final vehicle concentration is 1% (v/v) dimethylsulphoxide. The reaction is stopped by removing supernatants, washing once with 100 μL assay buffer and replacing with 50 μL lysis buffer. The cell monolayer is frozen at −80° C. for 30 minutes (or overnight).
AlphaScreen™ cAMP detection
The concentration of cAMP (cyclic adenosine monophosphate) in the cell lysate is determined using AlphaScreen™ methodology. The frozen cell plate is thawed for 20 minutes on a plate shaker then 10 μL of the cell lysate is transferred to a 96-well white plate. 40 μL of mixed AlphaScreen™ detection beads pre-incubated with biotinylated cAMP, is added to each well and the plate incubated at room temperature for 3 hours in the dark. The AlphaScreen™ signal is measured using an EnVision spectrophotometer (Perkin-Elmer Inc.) with the recommended manufacturer's settings. cAMP concentrations are determined by reference to a calibration curve determined in the same experiment using standard cAMP concentrations. Concentration response curves for agonists are constructed and data is fitted to a four parameter logistic equation to determine both the pEC50 and Intrinsic Activity. Intrinsic Activity is expressed as a fraction relative to the maximum activity determined for formoterol in each experiment.

T2 sequence (P07550 whole entry): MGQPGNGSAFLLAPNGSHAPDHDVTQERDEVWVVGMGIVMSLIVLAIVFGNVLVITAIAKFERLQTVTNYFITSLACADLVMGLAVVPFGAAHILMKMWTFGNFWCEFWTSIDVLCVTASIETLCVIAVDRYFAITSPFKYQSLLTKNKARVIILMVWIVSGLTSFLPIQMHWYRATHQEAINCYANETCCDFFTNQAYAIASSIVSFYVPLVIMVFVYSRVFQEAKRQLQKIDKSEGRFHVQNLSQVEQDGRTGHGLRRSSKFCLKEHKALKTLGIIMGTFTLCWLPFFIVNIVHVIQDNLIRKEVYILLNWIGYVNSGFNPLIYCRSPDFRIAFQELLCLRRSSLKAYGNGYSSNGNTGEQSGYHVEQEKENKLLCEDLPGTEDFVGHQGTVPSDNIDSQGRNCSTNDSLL
T1 sequence (P20309 whole entry): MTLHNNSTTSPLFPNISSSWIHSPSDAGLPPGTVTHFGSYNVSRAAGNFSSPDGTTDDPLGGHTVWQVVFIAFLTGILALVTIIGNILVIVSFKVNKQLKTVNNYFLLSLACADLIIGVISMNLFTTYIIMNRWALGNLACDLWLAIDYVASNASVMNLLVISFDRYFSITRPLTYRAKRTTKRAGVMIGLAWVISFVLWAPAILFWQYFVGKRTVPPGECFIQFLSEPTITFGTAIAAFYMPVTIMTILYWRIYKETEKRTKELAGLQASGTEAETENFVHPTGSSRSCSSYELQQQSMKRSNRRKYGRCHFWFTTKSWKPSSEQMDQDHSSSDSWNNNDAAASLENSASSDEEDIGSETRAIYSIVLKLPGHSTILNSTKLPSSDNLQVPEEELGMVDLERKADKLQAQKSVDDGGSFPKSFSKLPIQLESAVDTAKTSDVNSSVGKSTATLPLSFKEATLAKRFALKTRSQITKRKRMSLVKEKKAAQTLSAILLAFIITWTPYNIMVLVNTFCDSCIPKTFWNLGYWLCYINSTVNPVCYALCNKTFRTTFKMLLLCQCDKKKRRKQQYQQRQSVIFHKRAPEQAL

For `CC(C)c1nc(C(=O)N2CCOC3(CCN(Cc4cccc(CCOCCC(=O)N(CCNCCc5ccc(O)c6c5OCC(=O)N6)[C@H](C)C(C)C)c4F)CC3)C2)cs1` [Example 12, R)-3-(2-Fluoro-3-((4-(2-isopropylthiazole-4-carbonyl)-1-oxa-4,9-diazaspiro[5.5]undecan-9-yl)methyl)phenethoxy)-N-(2-(2-(5-hydroxy-3-oxo-3,4-dihydro-2H-benzo[b][1,4]oxazin-8-yl)ethylamino)ethyl)-N-(3-methylbutan-2-yl)propanamide ditrifluoroacetate], the IC50 [1] was 0.501 nM, the EC50 (Adrenergic β2) was 39.8 nM and the “β2 Intrinsic Activity” value (Adrenergic β2) was 1.0.

For `CC(C)c1nc(C(=O)N2CCOC3(CCN(Cc4cccc(CCOCCC(=O)N(C)CCNCCc5ccc(O)c6[nH]c(=O)sc56)c4F)CC3)C2)cs1` [Example 13, 3-(2-Fluoro-3-((4-(2-isopropylthiazole-4-carbonyl)-1-oxa-4,9-diazaspiro[5.5]undecan-9-yl)methyl)phenethoxy)-N-(2-(2-(4-hydroxy-2-oxo-2,3-dihydrobenzo[d]thiazol-7-yl)ethylamino)ethyl)-N-methylpropanamide ditrifluoroacetate], the IC50 [1] was 0.631 nM, the EC50 (Adrenergic β2) was 25.1 nM and the “β2 Intrinsic Activity” value (Adrenergic β2) was 0.8.

For `CC(C)c1nc(C(=O)N2CCOC3(CCN(Cc4cccc(CCOCCC(=O)N(CCNCCc5ccc(O)c6c5OCC(=O)N6)[C@H](C)c5ccccc5)c4F)CC3)C2)cs1` [Example 14, (R)-3-(2-Fluoro-3-((4-(2-isopropylthiazole-4-carbonyl)-1-oxa-4,9-diazaspiro[5.5]undecan-9-yl)methyl)phenethoxy)-N-(2-(2-(5-hydroxy-3-oxo-3,4-dihydro-2H-benzo[b][1,4]oxazin-8-yl)ethylamino)ethyl)-N-(1-phenylethyl)propanamide ditrifluoroacetate], the IC50 [1] was 0.398 nM, the EC50 (Adrenergic β2) was 50.1 nM and the “β2 Intrinsic Activity” value (Adrenergic β2) was 1.0.

In the case of `CCN(CCNCCc1ccc(O)c2c1OCC(=O)N2)C(=O)CCOCCc1cccc(CN2CCC3(CC2)CN(C(=O)c2csc(C(C)C)n2)CCO3)c1F` [Example 15, N-Ethyl-3-(2-fluoro-3-((4-(2-isopropylthiazole-4-carbonyl)-1-oxa-4,9-diazaspiro[5.5]undecan-9-yl)methyl)phenethoxy)-N-(2-(2-(5-hydroxy-3-oxo-3,4-dihydro-2H-benzo[b][1,4]oxazin-8-yl)ethylamino)ethyl)propanamide ditrifluoroacetate], the IC50 [1] is reported as 0.398 nM, the EC50 (Adrenergic β2) is reported as 31.6 nM and the “β2 Intrinsic Activity” value (Adrenergic β2) is reported as 0.7.

`CC(C)c1nc(C(=O)N2CCOC3(CCN(Cc4cccc(CCOCCC(=O)N(CCNCCc5ccc(O)c6c5OCC(=O)N6)C(C)C)c4F)CC3)C2)cs1` [Example 16, 3-(2-Fluoro-3-((4-(2-isopropylthiazole-4-carbonyl)-1-oxa-4,9-diazaspiro[5.5]undecan-9-yl)methyl)phenethoxy)-N-(2-(2-(5-hydroxy-3-oxo-3,4-dihydro-2H-benzo[b][1,4]oxazin-8-yl)ethylamino)ethyl)-N-isopropylpropanamide ditrifluoroacetate] was tested, and the IC50 [1] was 0.251 nM, the EC50 (Adrenergic β2) was 200 nM and the “β2 Intrinsic Activity” value (Adrenergic β2) was 0.8.

`CC(C)c1nc(C(=O)N2CCOC3(CCN(Cc4cccc(CCOCCC(=O)N(CCNCCc5ccc(O)c6c5OCC(=O)N6)CCC(C)(C)C)c4F)CC3)C2)cs1` [Example 17, N-(3,3-Dimethylbutyl)-3-(2-fluoro-3-((4-(2-isopropylthiazole-4-carbonyl)-1-oxa-4,9-diazaspiro[5.5]undecan-9-yl)methyl)phenethoxy)-N-(2-(2-(5-hydroxy-3-oxo-3,4-dihydro-2H-benzo[b][1,4]oxazin-8-yl)ethylamino)ethyl)propanamide ditrifluoroacetate] was tested, and the IC50 [1] was 0.316 nM, the EC50 (Adrenergic β2) was 50.1 nM and the “β2 Intrinsic Activity” value (Adrenergic β2) was 1.0.
